# Experimental data reported in ChEMBL document CHEMBL4627246, “Pyroglutamide-Based P2X7 Receptor Antagonists Targeting Inflammatory Bowel Disease” (J Med Chem, 2020).
# System: T47D
# Test: Cytotoxicity against human T47D cells assessed as effect on cell growth at 10 uM incubated for 48 hrs by sulforhodamine B assay
# Type: cell-based
# Details: not given
row,SMILES,Activity
1,O=C(NCc1ccc(Cl)cc1Cl)c1ccccn1,Non-Toxic
2,O=C(NCCc1ccccc1)[C@@H]1CCC(=O)N1Cc1ccc(Cl)cc1Cl,Non-Toxic
3,O=C1N[C@H](C(=O)NCc2ccc(Cl)cc2Cl)C/C1=N\O (stereo in doubt),Non-Toxic

# System: HCC 2998
# Test: Cytotoxicity against human HCC2998 cells assessed as effect on cell growth at 10 uM incubated for 48 hrs by sulforhodamine B assay
# Type: cell-based
# Details: hcc 2998, 48 h
row,SMILES,Activity
1,O=C(NCc1ccc(Cl)cc1Cl)c1ccccn1,Non-Toxic
2,O=C(NCCc1ccccc1)[C@@H]1CCC(=O)N1Cc1ccc(Cl)cc1Cl,Non-Toxic
3,O=C1N[C@H](C(=O)NCc2ccc(Cl)cc2Cl)C/C1=N\O (stereo in doubt),Non-Toxic

# System: SNB-75
# Test: Cytotoxicity against human SNB75 cells assessed as effect on cell growth at 10 uM incubated for 48 hrs by sulforhodamine B assay
# Type: cell-based
# Details: snb-75, 48 h
row,SMILES,Activity
1,O=C(NCc1ccc(Cl)cc1Cl)c1ccccn1,Non-Toxic
2,O=C(NCCc1ccccc1)[C@@H]1CCC(=O)N1Cc1ccc(Cl)cc1Cl,Non-Toxic
3,O=C1N[C@H](C(=O)NCc2ccc(Cl)cc2Cl)C/C1=N\O (stereo in doubt),Non-Toxic

# System: OVCAR-8
# Test: Cytotoxicity against human OVCAR8 cells assessed as effect on cell growth at 10 uM incubated for 48 hrs by sulforhodamine B assay
# Type: cell-based
# Details: ovcar-8, 48 h
row,SMILES,Activity
1,O=C(NCc1ccc(Cl)cc1Cl)c1ccccn1,Non-Toxic
2,O=C(NCCc1ccccc1)[C@@H]1CCC(=O)N1Cc1ccc(Cl)cc1Cl,Non-Toxic
3,O=C1N[C@H](C(=O)NCc2ccc(Cl)cc2Cl)C/C1=N\O (stereo in doubt),Non-Toxic

# System: MDA-MB-468
# Test: Cytotoxicity against human MDA-MB-468 cells assessed as effect on cell growth at 10 uM incubated for 48 hrs by sulforhodamine B assay
# Type: cell-based
# Details: mda-mb-468, 48 h
row,SMILES,Activity
1,O=C(NCc1ccc(Cl)cc1Cl)c1ccccn1,Non-Toxic
2,O=C(NCCc1ccccc1)[C@@H]1CCC(=O)N1Cc1ccc(Cl)cc1Cl,Non-Toxic
3,O=C1N[C@H](C(=O)NCc2ccc(Cl)cc2Cl)C/C1=N\O (stereo in doubt),Non-Toxic

# System: NCI-H322M
# Test: Cytotoxicity against human NCI-H322M cells assessed as effect on cell growth at 10 uM incubated for 48 hrs by sulforhodamine B assay
# Type: cell-based
# Details: not given
row,SMILES,Activity
1,O=C(NCc1ccc(Cl)cc1Cl)c1ccccn1,Non-Toxic
2,O=C(NCCc1ccccc1)[C@@H]1CCC(=O)N1Cc1ccc(Cl)cc1Cl,Non-Toxic
3,O=C1N[C@H](C(=O)NCc2ccc(Cl)cc2Cl)C/C1=N\O (stereo in doubt),Non-Toxic

# System: COLO 205
# Test: Cytotoxicity against human COLO205 cells assessed as effect on cell growth at 10 uM incubated for 48 hrs by sulforhodamine B assay
# Type: cell-based
# Details: colo 205, 48 h
row,SMILES,Activity
1,O=C(NCc1ccc(Cl)cc1Cl)c1ccccn1,Non-Toxic
2,O=C(NCCc1ccccc1)[C@@H]1CCC(=O)N1Cc1ccc(Cl)cc1Cl,Non-Toxic
3,O=C1N[C@H](C(=O)NCc2ccc(Cl)cc2Cl)C/C1=N\O (stereo in doubt),Non-Toxic

# System: HT-29
# Test: Cytotoxicity against human HT-29 cells assessed as effect on cell growth at 10 uM incubated for 48 hrs by sulforhodamine B assay
# Type: cell-based
# Details: ht-29, 48 h
row,SMILES,Activity
1,O=C(NCc1ccc(Cl)cc1Cl)c1ccccn1,Non-Toxic
2,O=C(NCCc1ccccc1)[C@@H]1CCC(=O)N1Cc1ccc(Cl)cc1Cl,Non-Toxic
3,O=C1N[C@H](C(=O)NCc2ccc(Cl)cc2Cl)C/C1=N\O (stereo in doubt),Non-Toxic

# System: IGROV-1
# Test: Cytotoxicity against human IGROV1 cells assessed as effect on cell growth at 10 uM incubated for 48 hrs by sulforhodamine B assay
# Type: cell-based
# Details: igrov-1, 48 h
row,SMILES,Activity
1,O=C(NCc1ccc(Cl)cc1Cl)c1ccccn1,Non-Toxic
2,O=C(NCCc1ccccc1)[C@@H]1CCC(=O)N1Cc1ccc(Cl)cc1Cl,Non-Toxic
3,O=C1N[C@H](C(=O)NCc2ccc(Cl)cc2Cl)C/C1=N\O (stereo in doubt),Non-Toxic

# System: NCI-H522
# Test: Cytotoxicity against human NCI-H522 cells assessed as effect on cell growth at 10 uM incubated for 48 hrs by sulforhodamine B assay
# Type: cell-based
# Details: nci-h522, 48 h
row,SMILES,Activity
1,O=C(NCc1ccc(Cl)cc1Cl)c1ccccn1,Non-Toxic
2,O=C(NCCc1ccccc1)[C@@H]1CCC(=O)N1Cc1ccc(Cl)cc1Cl,Non-Toxic
3,O=C1N[C@H](C(=O)NCc2ccc(Cl)cc2Cl)C/C1=N\O (stereo in doubt),Non-Toxic

# System: UACC-62
# Test: Cytotoxicity against human UACC62 cells assessed as effect on cell growth at 10 uM incubated for 48 hrs by sulforhodamine B assay
# Type: cell-based
# Details: uacc-62, 48 h
row,SMILES,Activity
1,O=C(NCc1ccc(Cl)cc1Cl)c1ccccn1,Non-Toxic
2,O=C(NCCc1ccccc1)[C@@H]1CCC(=O)N1Cc1ccc(Cl)cc1Cl,Non-Toxic
3,O=C1N[C@H](C(=O)NCc2ccc(Cl)cc2Cl)C/C1=N\O (stereo in doubt),Non-Toxic

# System: SNB-19
# Test: Cytotoxicity against human SNB19 cells assessed as effect on cell growth at 10 uM incubated for 48 hrs by sulforhodamine B assay
# Type: cell-based
# Details: snb-19, 48 h
row,SMILES,Activity
1,O=C(NCc1ccc(Cl)cc1Cl)c1ccccn1,Non-Toxic
2,O=C(NCCc1ccccc1)[C@@H]1CCC(=O)N1Cc1ccc(Cl)cc1Cl,Non-Toxic
3,O=C1N[C@H](C(=O)NCc2ccc(Cl)cc2Cl)C/C1=N\O (stereo in doubt),Non-Toxic

# System: NCI-H23
# Test: Cytotoxicity against human NCI-H23 cells assessed as effect on cell growth at 10 uM incubated for 48 hrs by sulforhodamine B assay
# Type: cell-based
# Details: nci-h23, 48 h
row,SMILES,Activity
1,O=C(NCc1ccc(Cl)cc1Cl)c1ccccn1,Non-Toxic
2,O=C(NCCc1ccccc1)[C@@H]1CCC(=O)N1Cc1ccc(Cl)cc1Cl,Non-Toxic
3,O=C1N[C@H](C(=O)NCc2ccc(Cl)cc2Cl)C/C1=N\O (stereo in doubt),Non-Toxic

# System: HCT-116
# Test: Cytotoxicity against human HCT116 cells assessed as effect on cell growth at 10 uM incubated for 48 hrs by sulforhodamine B assay
# Type: cell-based
# Details: hct-116, 48 h
row,SMILES,Activity
1,O=C(NCc1ccc(Cl)cc1Cl)c1ccccn1,Non-Toxic
2,O=C(NCCc1ccccc1)[C@@H]1CCC(=O)N1Cc1ccc(Cl)cc1Cl,Non-Toxic
3,O=C1N[C@H](C(=O)NCc2ccc(Cl)cc2Cl)C/C1=N\O (stereo in doubt),Non-Toxic

# System: TK-10
# Test: Cytotoxicity against human TK10 cells assessed as effect on cell growth at 10 uM incubated for 48 hrs by sulforhodamine B assay
# Type: cell-based
# Details: tk-10, 48 h
row,SMILES,Activity
1,O=C(NCc1ccc(Cl)cc1Cl)c1ccccn1,Non-Toxic
2,O=C(NCCc1ccccc1)[C@@H]1CCC(=O)N1Cc1ccc(Cl)cc1Cl,Non-Toxic
3,O=C1N[C@H](C(=O)NCc2ccc(Cl)cc2Cl)C/C1=N\O (stereo in doubt),Non-Toxic

# System: PC-3
# Test: Cytotoxicity against human PC3 cells assessed as effect on cell growth at 10 uM incubated for 48 hrs by sulforhodamine B assay
# Type: cell-based
# Details: pc-3, 48 h
row,SMILES,Activity
1,O=C(NCc1ccc(Cl)cc1Cl)c1ccccn1,Non-Toxic
2,O=C(NCCc1ccccc1)[C@@H]1CCC(=O)N1Cc1ccc(Cl)cc1Cl,Non-Toxic
3,O=C1N[C@H](C(=O)NCc2ccc(Cl)cc2Cl)C/C1=N\O (stereo in doubt),Non-Toxic

# System: NCI/ADR-RES
# Test: Cytotoxicity against human NCI/ADR-RES cells assessed as effect on cell growth at 10 uM incubated for 48 hrs by sulforhodamine B assay
# Type: cell-based
# Details: not given
row,SMILES,Activity
1,O=C(NCc1ccc(Cl)cc1Cl)c1ccccn1,Non-Toxic
2,O=C(NCCc1ccccc1)[C@@H]1CCC(=O)N1Cc1ccc(Cl)cc1Cl,Non-Toxic
3,O=C1N[C@H](C(=O)NCc2ccc(Cl)cc2Cl)C/C1=N\O (stereo in doubt),Non-Toxic

# System: HOP-92
# Test: Cytotoxicity against human HOP92 cells assessed as effect on cell growth at 10 uM incubated for 48 hrs by sulforhodamine B assay
# Type: cell-based
# Details: hop-92, 48 h
row,SMILES,Activity
1,O=C(NCc1ccc(Cl)cc1Cl)c1ccccn1,Non-Toxic
2,O=C(NCCc1ccccc1)[C@@H]1CCC(=O)N1Cc1ccc(Cl)cc1Cl,Non-Toxic
3,O=C1N[C@H](C(=O)NCc2ccc(Cl)cc2Cl)C/C1=N\O (stereo in doubt),Non-Toxic

# System: U-251
# Test: Cytotoxicity against human U251 cells assessed as effect on cell growth at 10 uM incubated for 48 hrs by sulforhodamine B assay
# Type: cell-based
# Details: u-251, 48 h
row,SMILES,Activity
1,O=C(NCc1ccc(Cl)cc1Cl)c1ccccn1,Non-Toxic
2,O=C(NCCc1ccccc1)[C@@H]1CCC(=O)N1Cc1ccc(Cl)cc1Cl,Non-Toxic
3,O=C1N[C@H](C(=O)NCc2ccc(Cl)cc2Cl)C/C1=N\O (stereo in doubt),Non-Toxic

# System: Malme-3M
# Test: Cytotoxicity against human MALME-3M cells assessed as effect on cell growth at 10 uM incubated for 48 hrs by sulforhodamine B assay
# Type: cell-based
# Details: not given
row,SMILES,Activity
1,O=C(NCc1ccc(Cl)cc1Cl)c1ccccn1,Non-Toxic
2,O=C(NCCc1ccccc1)[C@@H]1CCC(=O)N1Cc1ccc(Cl)cc1Cl,Non-Toxic
3,O=C1N[C@H](C(=O)NCc2ccc(Cl)cc2Cl)C/C1=N\O (stereo in doubt),Non-Toxic
